# In ChEMBL document CHEMBL1140658, “Inhibitors of anthrax lethal factor” (Bioorg Med Chem Lett, 2007):
# The source made the active and inactive calls. The rule behind the calls is not given here.
# Columns and labels:
# [1] = target: T1, Lethal factor (Bacillus anthracis) (UniProt P15917); test: (§1) Inhibition of anthrax lethal factor upto 100 uM by FRET assay
# T1 sequence (whole entry): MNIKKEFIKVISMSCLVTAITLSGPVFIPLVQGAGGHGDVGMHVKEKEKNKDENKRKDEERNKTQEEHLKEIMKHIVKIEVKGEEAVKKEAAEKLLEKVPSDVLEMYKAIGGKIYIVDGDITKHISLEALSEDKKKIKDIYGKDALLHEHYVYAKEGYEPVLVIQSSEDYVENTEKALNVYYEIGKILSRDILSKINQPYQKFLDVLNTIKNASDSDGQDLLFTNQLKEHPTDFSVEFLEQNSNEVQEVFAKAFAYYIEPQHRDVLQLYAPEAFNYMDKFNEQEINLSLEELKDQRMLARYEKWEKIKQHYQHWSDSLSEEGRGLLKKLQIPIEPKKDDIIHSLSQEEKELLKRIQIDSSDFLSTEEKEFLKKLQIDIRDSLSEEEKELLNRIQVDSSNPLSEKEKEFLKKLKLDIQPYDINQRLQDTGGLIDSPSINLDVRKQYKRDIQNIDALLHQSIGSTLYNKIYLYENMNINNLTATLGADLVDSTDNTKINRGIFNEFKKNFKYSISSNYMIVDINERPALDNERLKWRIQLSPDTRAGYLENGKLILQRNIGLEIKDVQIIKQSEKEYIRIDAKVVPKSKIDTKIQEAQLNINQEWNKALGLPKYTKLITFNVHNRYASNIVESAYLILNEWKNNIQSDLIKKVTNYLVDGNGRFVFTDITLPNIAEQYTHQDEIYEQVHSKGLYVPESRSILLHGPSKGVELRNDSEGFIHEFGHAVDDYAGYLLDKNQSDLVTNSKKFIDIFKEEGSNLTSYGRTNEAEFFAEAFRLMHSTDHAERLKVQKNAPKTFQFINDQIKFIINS
# [2] = target: T1, Lethal factor (Bacillus anthracis); test: as §1; remark: listed apart in the source
# J774.A1 [3] = test: Cytotoxicity against J774A.1 cells assessed as cell viability at 30 uM after 4 hrs by MTT assay; type: functional, cell-based; conditions: Mus musculus
# J774.A1 [4] = test: Inhibition of anthrax lethal factor induced J774A.1 cell death at 20 uM by MTT assay; type: functional, Mus musculus; parameters: scale not given: the % may be the effect or the level left
# Lethal factor = target: T2, Lethal factor (Bacillus anthracis, UniProt P15917); test: Inhibition of anthrax lethal factor by FRET assay
# T2 sequence (P15917 whole entry): T1 sequence (whole entry)
# J774.A1 [5] = test: Inhibition of anthrax lethal factor induced J774A.1 cell death at 85 uM by MTT assay; type: functional, cell-based; conditions: Mus musculus
# J774.A1 [6] = test: Cytotoxicity against J774A.1 cells assessed as cell viability upto 30 uM after 4 hrs by MTT assay; type: functional, cell-based; conditions: Mus musculus
# J774.A1 [7] = test: Inhibition of anthrax lethal factor induced J774A.1 cell death by MTT assay; type: functional, cell-based; conditions: Mus musculus
SMILES,Activity [1],Activity [2],IC50 (Lethal factor) [µM],Ki (Lethal factor) [µM],other results
CCCCCCCC/C=C\CCCCCCCC(=O)NCCc1ccc(OC)c(OC)c1,inactive,inactive,–,–,–
CCCCCCCC/C=C\CCCCCCCC(=O)NCCc1cc(O)c(O)c(O)c1,–,–,13,1.7,Activity (J774.A1 [3]): inactive; Activity (J774.A1 [4]): 46%; Activity (J774.A1 [5]): inactive
CCCCCCCC/C=C\CCCCCCCC(=O)NCCc1ccc(O)cc1,inactive,inactive,–,–,–
CCCCCCCC/C=C\CCCCCCCC(=O)NCCc1ccc(C(=O)NO)cc1,–,–,32,6,–
CCCCCCCC/C=C\CCCCCCCC(=O)NCCc1cc(O)c(O)cc1O,–,–,70,–,–
CCCCCCCC/C=C\CCCCCCCC(=O)NCCc1ccc(O)c(O)c1 [OLEOYL DOPAMINE],–,–,15,3,Activity (J774.A1 [6]): Not toxic; IC50 (J774.A1 [7]): 5 µM
